Patent publication US20260092179A1, “GENETICALLY MODIFIED HOST CELLS PRODUCING VIOLACEIN, ANALOGUES, AND DERIVATIVES THEREOF” (OCTARINE BIO APS, priority 2022, published 2026)

Key:
[1] = Free radical scavenging ability of dyed Nylon 6,6 fabric (DPPH); assay type: biochemical; conditions: dyed Nylon 6,6 fabric strip
Procedure: Violacein is reported as being a potent antioxidant able to effectively scavenge free radicals. […] To test this, 1.5×1.5 cm dyed Nylon 6,6 fabric strips were incubated in the dark at room temperature for 1 h in 5 mL of a 5×10^−5 M DPPH free radical solution in 100% ethanol. Undyed Nylon 6,6 fabric strips were included as a negative control. After 1 h absorbance was measured at 517 nm and % scavenging ability calculated as above.

[2] = UV stability of dyed fabrics (colour fastness, ΔE); assay type: physicochemical; conditions: for ΔE: before vs after UV lamp, room temperature, 1 h
Procedure: (§1) In order to assess the stability and colour fastness of violacein and violacein derivatives dyed onto fabrics, dyed fabrics were subjected to a number of conditions. Fabrics were dyed according to Example 18 and colour coordinates and colour change before and after exposure to a given condition were determined as described in Example 18. To measure temperature stability, fabrics were incubated in an oven set to 80° c. for 4 h. To measure stability under acid and alkaline conditions, fabrics were fully submerged in water solutions set to pH 8 with NaOH and pH 5 with HCl and incubated at room temperature for 30 minutes. Fabrics were then incubated at 37° c. for 4 h. To measure stability during laundering, fabrics were washed at 30° c. under the “mix” setting of a Siemens IQ300 washing machine, then dried in a Siemens IQ300 dryer until dry. To measure artificial light stability, fabrics were placed under an LED lamp at room temperature for 16 h. To measure UV light stability, fabrics were placed under a UV lamp at room temperature for 1 h.

[3] = Alkaline pH stability of dyed fabrics (colour fastness, ΔE); assay type: physicochemical; conditions: pH 8 with NaOH
Procedure: as §1

[4] = Stability during laundering of dyed fabrics (colour fastness, ΔE); assay type: physicochemical; conditions: washed at 30° c.
Procedure: as §1

[5] = Acrylic, after test (UV lamp, room temperature, 1 h)
[6] = Bleached cotton, after test (UV lamp, room temperature, 1 h)
[7] = Diacetate, after test (UV lamp, room temperature, 1 h)
[8] = Nylon 6,6, after test (UV lamp, room temperature, 1 h)
[9] = Polyester, after test (UV lamp, room temperature, 1 h)
[10] = Wool, after test (UV lamp, room temperature, 1 h)
[11] = Acrylic, before and after the stability test
[12] = Bleached cotton, before and after the stability test
[13] = Diacetate, before and after the stability test
[14] = Nylon 6,6, before and after the stability test
[15] = Polyester, before and after the stability test
[16] = Wool, before and after the stability test

O=C1NC(c2c[nH]c3ccccc23)=C/C1=C1\C(=O)Nc2ccccc21 [deoxyviolacein]
OD517 ([1]; 1 h in the dark in 5×10^−5 M DPPH in 100% ethanol): 1.43
Scavenging ability % ([1]; 1 h in the dark in 5×10^−5 M DPPH, vs undyed control): 37.05%
L [2, 5]: 61.34
a [2, 5]: 2.05
b [2, 5]: −2.89
L ([2]; Acrylic, before test): 60.15
a ([2]; Acrylic, before test): 1.07
b ([2]; Acrylic, before test): −2.07
ΔE ([2]; Acrylic): 1.75
L [2, 6]: 62.17
a [2, 6]: 1.62
b [2, 6]: −6.68
L ([2]; Bleached cotton, before test): 61.4
a ([2]; Bleached cotton, before test): 1.8
b ([2]; Bleached cotton, before test): −7.92
ΔE ([2]; Bleached cotton): 1.47
L [2, 7]: 53.68
a [2, 7]: 8.75
b [2, 7]: −10.95
L ([2]; Diacetate, before test): 52.05
a ([2]; Diacetate, before test): 9.98
b ([2]; Diacetate, before test): −14.88
ΔE ([2]; Diacetate): 4.43
L [2, 8]: 46.19
a [2, 8]: 4.4
b [2, 8]: −19.75
L ([2]; Nylon 6,6, before test): 45.92
a ([2]; Nylon 6,6, before test): 4.94
b ([2]; Nylon 6,6, before test): −21.23
ΔE ([2]; Nylon 6,6): 1.60
L [2, 9]: 67.09
a [2, 9]: 1.19
b [2, 9]: −3.68
L ([2]; Polyester, before test): 66.55
a ([2]; Polyester, before test): 1.03
b ([2]; Polyester, before test): −2.87
ΔE ([2]; Polyester): 0.99
L [2, 10]: 67.65
a [2, 10]: 0.75
b [2, 10]: 1.17
L ([2]; Wool, before test): 65.56
a ([2]; Wool, before test): 0.65
b ([2]; Wool, before test): 0.31
ΔE ([2]; Wool): 2.26
L ([3]; Acrylic, After test): 59.52
a ([3]; Acrylic, After test): 0.99
b ([3]; Acrylic, After test): −2.75
L ([3]; Acrylic, Before test): 60.91
a ([3]; Acrylic, Before test): 1.48
b ([3]; Acrylic, Before test): −2.6
ΔE [3, 11]: 1.48
L ([3]; Bleached cotton, After test): 62.83
a ([3]; Bleached cotton, After test): 2.23
b ([3]; Bleached cotton, After test): −8.43
L ([3]; Bleached cotton, Before test): 61.33
a ([3]; Bleached cotton, Before test): 1.92
b ([3]; Bleached cotton, Before test): −9.6
ΔE [3, 12]: 1.93
L ([3]; Diacetate, After test): 53.77
a ([3]; Diacetate, After test): 9.48
b ([3]; Diacetate, After test): −13.38
L ([3]; Diacetate, Before test): 53.4
a ([3]; Diacetate, Before test): 9.48
b ([3]; Diacetate, Before test): −14.88
ΔE [3, 13]: 1.54
L ([3]; Nylon 6,6, After test): 46
a ([3]; Nylon 6,6, After test): 4.44
b ([3]; Nylon 6,6, After test): −20.31
L ([3]; Nylon 6,6, Before test): 45.47
a ([3]; Nylon 6,6, Before test): 6.49
b ([3]; Nylon 6,6, Before test): −22.12
ΔE [3, 14]: 2.79
L ([3]; Polyester, After test): 67.22
a ([3]; Polyester, After test): 2.02
b ([3]; Polyester, After test): −3.88
L ([3]; Polyester, Before test): 66.7
a ([3]; Polyester, Before test): 1.3
b ([3]; Polyester, Before test): −4.19
ΔE [3, 15]: 0.94
L ([3]; Wool, After test): 66.95
a ([3]; Wool, After test): 0.82
b ([3]; Wool, After test): −0.41
L ([3]; Wool, Before test): 65.33
a ([3]; Wool, Before test): 0.19
b ([3]; Wool, Before test): 0.13
ΔE [3, 16]: 1.82
L ([4]; Acrylic, After test): 69.42
a ([4]; Acrylic, After test): −1.13
b ([4]; Acrylic, After test): 0.45
L ([4]; Acrylic, Before test): 60.9
a ([4]; Acrylic, Before test): 0.39
b ([4]; Acrylic, Before test): −2.66
ΔE [4, 11]: 9.20
L ([4]; Bleached cotton, After test): 69.57
a ([4]; Bleached cotton, After test): 0.39
b ([4]; Bleached cotton, After test): −5.93
L ([4]; Bleached cotton, Before test): 61.14
a ([4]; Bleached cotton, Before test): 0.73
b ([4]; Bleached cotton, Before test): −8.03
ΔE [4, 12]: 8.69
L ([4]; Diacetate, After test): 54.82
a ([4]; Diacetate, After test): 10.32
b ([4]; Diacetate, After test): −14.22
L ([4]; Diacetate, Before test): 50.89
a ([4]; Diacetate, Before test): 9.08
b ([4]; Diacetate, Before test): −15.27
ΔE [4, 13]: 4.25
L ([4]; Nylon 6,6, After test): 47.79
a ([4]; Nylon 6,6, After test): 6.03
b ([4]; Nylon 6,6, After test): −20.63
L ([4]; Nylon 6,6, Before test): 44.46
a ([4]; Nylon 6,6, Before test): 6.19
b ([4]; Nylon 6,6, Before test): −22.02
ΔE [4, 14]: 3.61
L ([4]; Polyester, After test): 74.17
a ([4]; Polyester, After test): −0.99
b ([4]; Polyester, After test): −0.58
L ([4]; Polyester, Before test): 64.92
a ([4]; Polyester, Before test): 1.08
b ([4]; Polyester, Before test): −5.1
ΔE [4, 15]: 10.50
L ([4]; Wool, After test): 72.9
a ([4]; Wool, After test): −0.9
b ([4]; Wool, After test): 3.2
L ([4]; Wool, Before test): 63.37
a ([4]; Wool, Before test): −0.25
b ([4]; Wool, Before test): −1.82
ΔE [4, 16]: 10.79
